According to patent publication US20250163044A1, “COMPOUNDS” (PSYLO PTY LTD, priority 2021, published 2025):

How the values were obtained:
C57BL/6J mice = test: Biotelemetry and head-twitch response (HTR) experiments; assay type: in vivo, Mice (C57BL/6J males); details: male C57BL/6 mice, SC, several doses (0.03 to 30 mg/kg)
Description: Mice (C57BL/6J males) were purchased from the Jackson Laboratory (Bar Harbor, ME, USA) at 5-6 weeks of age and allowed at least 1-2 weeks to acclimate to the NIDA, Intramural Research Program (IRP), animal research facility in Baltimore, MD, USA. The animal facility is fully accredited by the Association for the Assessment and Accreditation of Laboratory Animal Care, and all procedures were approved by the NIDA IRP Animal Care and Use Committee. Mice were initially group housed 3-5 per cage during acclimation and housed in a 12 h light-dark cycle throughout the study, with lights on at 0700 h. Food and water were available ad libitum except during testing. Cohorts of 20-24 mice were used for each test drug. The mice were subjected to experimental testing once every 1-2 weeks for 2-3 months to complete dose-effect curves and antagonist experiments. A minimum of 7 days between treatments was utilized to avoid any tolerance to effects of repeated drug administration. All drug doses represent the weight of the salt dissolved in 0.9% saline vehicle. Mice were tested first in dose-response studies to assess the effects of each compound at doses from 0.03 to 30 mg/kg s.c. and were subsequently tested in antagonist reversal studies utilizing pretreatment with M100907 and WAY100635. All experiments were conducted from 0900 to 1700 local time during the light phase, as sensitivity of rodents to other tryptamine psychedelics is diurnal, with maximal HTR observed in the middle of the light phase. Experiments were run during the light phase also to avoid any potential influence of melatonin receptor activity on HTR as melatonin and related agonists are known to reduce HTR induced by DOI in rats. For each experiment, mice were acclimated to the testing room in their home cage for at least 1 h prior to experimental sessions. Behavioral test sessions were carried out in Tru Scan mouse locomotor arenas equipped with photobeam arrays (Coulbourn Instruments, Holliston, MA, USA), which were modified with cylindrical inserts and transparent floors useful in detecting mouse HTR.
Subcutaneous Temperature Transponder Implants. At least 1 week prior to the start of the experiments, mice received s.c. implanted temperature transponders (14×2 mm, model IPTT-300, Bio Medic Data Systems, Inc., Seaford, DE, USA) under brief isoflurane anesthesia. Mice were single housed post implant for the remainder of the study to protect the transponder from removal by cage mates. Temperature was determined noninvasively using a handheld receiver that is sensitive to signals emitted from the implanted transponders.
Prior to each experiment, mouse body weight and temperature were recorded. Mice were then placed into testing chambers for acclimation. In dose-response studies, after a brief 5 min acclimation, mouse body temperature was recorded for baseline measurement, mice received s.c. injection of test substance or vehicle, and animals were returned to the testing arena for 30 min. During the session, locomotor activity was monitored via photobeam tracking of movements in the horizontal plane to yield distance traveled in centimeter. HTR was monitored by the analysis of GoPro Hero Black 7 video recordings (120 frames per sec and 960p resolution) using a commercially available software package from Clever Sys Inc. (Reston, VA, USA). 82 Post-treatment body temperature values were also recorded, and temperature data are represented as change from pretreatment baseline.
In antagonist reversal experiments, mice received a s.c. injection of either receptor antagonists or vehicle and were returned to the testing chamber for 30 min. During this period, locomotor activity was monitored to examine the potential effects of antagonist treatment on general behavior or movement. At 30 min after antagonist administration, mice were given test drug or vehicle and returned to the chambers for an additional 30 min of video recording used for analyses. […]

Male ICR mice = test: Acute restraint stress - tail suspension test (TST); assay type: in vivo; details: ICR mice after 5 h acute restraint stress, IP, 10 min before test; P-3 3, 10 mg/kg; P-8 3, 10, 30 mg/kg
Procedure: Male ICR mice (23±3 g) were purchased from BioLASCO (Taipei, Taiwan) at 4-5 weeks of age and allowed 5-7 days to acclimate to the animal research facility at Pharmacology Discovery Services (Taipei, Taiwan). Mice were housed in groups of 10 in a large cage (47×25×15 cm) on a 12-hour light cycle (lights on: 0700) and provided ad libitum food and water except during acute restraint stress and tail-suspension testing. Temperature was maintained at 20-24° C., and all rooms (colony and testing rooms) had similar lighting intensity. All aspects of this work including housing, experimentation, and animal disposal were performed in accordance with the “Guide for the Care and Use of Laboratory Animals: Eighth Edition” (The National Academies Press, Washington, DC, 2011) in a facility accredited by the Association for Assessment and Accreditation of Laboratory Animal Care. […]
Tail Suspension Test (TST) Procedure: Mice were individually suspended on the edge of a shelf, 58 cm above a tabletop, using adhesive tape placed approximately 1 cm from the tip of the tail, for a total duration of 7 minutes. Using a stopwatch, the experimenters blinded to treatment groups recorded the duration of immobility (defined as hanging passively and motionless) during the 5 minutes spanning from 2-7 minutes. The data from 0-2 minutes was not recorded. […]

5-HT2B receptor = target: T1, 5-HT2B receptor (Homo sapiens, UniProt P41595); test: FLIPR Ca2+ flux functional assay, agonist activity at 5-HT2B; assay type: cell-based; details: CHO-K1 cells, Ca2+ flux; read-out: 5-HT2B EC50
T1 construct: host or cells: CHO-K1
Summary of the method: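 Stably transfected cells (HEK293 for 5-HT2A/2C, CHO-K1 for 5-HT2B) loaded 50 min at 37° C with Fluo-4 Direct dye plus 2.5 mM probenecid (final). Compounds tested as 10-point serial dilutions (3-fold; references 4-fold) and calcium fluorescence read on FLIPR Tetra after addition.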

T1 sequence (P41595 whole entry): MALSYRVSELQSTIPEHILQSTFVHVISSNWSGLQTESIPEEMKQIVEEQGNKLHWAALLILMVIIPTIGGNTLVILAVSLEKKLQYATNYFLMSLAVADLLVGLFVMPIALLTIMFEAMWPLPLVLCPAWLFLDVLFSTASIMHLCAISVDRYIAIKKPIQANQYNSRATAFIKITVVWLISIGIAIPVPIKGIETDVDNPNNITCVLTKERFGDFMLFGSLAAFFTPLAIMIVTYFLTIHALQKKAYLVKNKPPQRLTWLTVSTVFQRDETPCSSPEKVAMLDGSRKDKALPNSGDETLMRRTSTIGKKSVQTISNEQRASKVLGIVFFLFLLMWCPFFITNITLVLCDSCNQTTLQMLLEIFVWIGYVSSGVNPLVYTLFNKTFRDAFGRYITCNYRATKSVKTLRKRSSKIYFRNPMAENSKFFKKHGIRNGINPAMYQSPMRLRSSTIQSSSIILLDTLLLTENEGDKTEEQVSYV

| Compound | Head-twitch response (HTR) (C57BL/6J mice) | Tolerability (temperature, locomotor activity) (C57BL/6J mice) | Immobility time in tail suspension test (Male ICR mice) | EC50 (5-HT2B receptor) |
| --- | --- | --- | --- | --- |
| COc1cnc2[nH]cc(CCN(C)C)c2c1 [Example P-3, 2-(5-methoxy-1H-pyrrolo[2,3-b]pyridin-3-yl)-N,N-dimethylethan-1-amine] | not promoting increased head-twitch response | well-tolerated | decrease the immobility time |  |
| COc1ccc2[nH]nc(CCN(C)C)c2c1 [Example P-8, 2-(5-methoxy-1H-indazol-3-yl)-N,N-dimethylethan-1-amine] |  |  | decrease the immobility time | > 10 µM |
